SMILES strings stand for the structures. Values after ≈ are worked out from the molar mass of the structure shown. A value given as a limit tells only on which side of the number the result lay.

Common to all, as to format: functional
Experiment [1] concerns Staphylococcus aureus. In words: Antibacterial activity against Staphylococcus aureus ATCC 29213 by NCCLS method.
Experiment [2] concerns Staphylococcus aureus. In words: Antibacterial activity against multi-drug resistant Staphylococcus aureus BAA-39 by NCCLS method.
Experiment [3] relates to Staphylococcus aureus. Description: Antibacterial activity against methicillin-resistan Staphylococcus aureus ATCC 33591 by NCCLS method.
Experiment [4] has as its system Staphylococcus epidermidis. Description: Antibacterial activity against Staphylococcus epidermidis ATCC 12228 by NCCLS method.
In experiment [5] the test system is Staphylococcus epidermidis. Description: Antibacterial activity against methicillin-resistan Staphylococcus epidermidis ATCC 51625 by NCCLS method.
The test system of the next experiment is Streptococcus pneumoniae. In words: Antibacterial activity against Streptococcus pneumoniae ATCC 6301 by NCCLS method.
Another experiment has as its system Enterococcus faecalis. In words: Antibacterial activity against vancomycin-resistant Enterococcus faecalis ATCC 51575 by NCCLS method.
For a further experiment, the system named is Enterococcus faecium. Description: Antibacterial activity against vancomycin-resistant Enterococcus faecium ATCC 700221 by NCCLS method.
The next experiment concerns Bacillus subtilis. In words: Antibacterial activity against Bacillus subtilis ATCC 23857 by NCCLS method.
The subject of another experiment is Bacillus cereus. Description: Antibacterial activity against Bacillus cereus ATCC 11778 by NCCLS method.
The next experiment has as its system Bacteroides fragilis. Description: Antibacterial activity against Bacteroides fragilis ATCC 23745 by NCCLS method.
For the next experiment, the system named is Clostridium perfringens. Description: Antibacterial activity against Clostridium perfringens ATCC 10388 by NCCLS method.

For `CC1(C)S[C@@H]2[C@H](NC(=O)Cc3ccccc3)C(=O)N2[C@H]1C(=O)O` [PENICILLIN G], the MIC is 1 µg/mL (≈ 2.99 µM) with Staphylococcus aureus [1]; greater than 32 µg/mL against Staphylococcus aureus [2]; greater than 32 µg/mL in the experiment with Staphylococcus aureus [3]; 32 µg/mL (≈ 95.7 µM) in experiment [4]; 32 µg/mL (≈ 95.7 µM) in experiment [5]; less than 0.06 µg/mL in the experiment on Streptococcus pneumoniae. Also, the MIC against Enterococcus faecalis is 4 µg/mL (≈ 12 µM); against Enterococcus faecium it was greater than 32 µg/mL; with Bacillus subtilis, less than 0.06 µg/mL; against Bacillus cereus it was greater than 4 µg/mL; in the experiment on Bacteroides fragilis, 4 µg/mL (≈ 12 µM); in the experiment with Clostridium perfringens, no more than 0.12 µg/mL.

What is called MIC is the lowest concentration that inhibits growth of the organism. A low value points to inhibition by little substance.

Source of the values: ChEMBL document CHEMBL1137006, “Optimization of the central linker of dicationic bis-benzimidazole anti-MRSA and anti-VRE agents” (2009).
